Source: ChEMBL document CHEMBL1671637, “Development, stability, and molecular mechanisms of macrolide resistance in Campylobacter jejuni” (2008)
In brackets after ≈: the same amount, converted by molar mass.

How the values were obtained:
[1] = test system: Campylobacter jejuni; test: Antimicrobial activity against Campylobacter jejuni JL304 harboring protein L22 with insertion of amino acid TSH at position 98 selected at 4 to 16 times MIC after 3 to 4 days by agar dilution method; format: functional
[2] = test system: Campylobacter jejuni; test: Antimicrobial activity against Campylobacter jejuni JL294 selected at 4 to 16 times MIC after 3 to 4 days by agar dilution method; format: functional
[3] = test system: Campylobacter jejuni; test: Antimicrobial activity against Campylobacter jejuni DC11 by agar dilution method; format: functional
[4] = test system: Campylobacter jejuni; test: Antimicrobial activity against Campylobacter jejuni DC27 harboring protein L4 G74D mutant by agar dilution method; format: functional
[5] = test system: Campylobacter jejuni; test: Antimicrobial activity against Campylobacter jejuni JL306 harboring protein L22 with insertion of amino acid TSH at position 98 selected at 4 to 16 times MIC after 3 to 4 days by agar dilution method; format: functional
[6] = test system: Campylobacter jejuni; test: Antimicrobial activity against Campylobacter jejuni DC31 harboring 23S rRNA A2074G mutant by agar dilution method; format: functional
[7] = test system: Campylobacter jejuni; test: Antimicrobial activity against Campylobacter jejuni DC26 infected in 15 days old chicken by agar dilution method in presence of food with tylosin; format: functional
[8] = test system: Campylobacter jejuni; test: Antimicrobial activity against Campylobacter jejuni DC19 harboring protein L4 G57D mutant by agar dilution method
[9] = test system: Campylobacter jejuni; test: Antimicrobial activity against Campylobacter jejuni JL288 harboring 23S rRNA A2074C mutant selected at 4 to 16 times MIC after 3 to 4 days by agar dilution method; format: functional
[10] = test system: Campylobacter jejuni; test: Antimicrobial activity against Campylobacter jejuni DC20 harboring protein L4 G74D mutant by agar dilution method; format: functional
[11] = test system: Campylobacter jejuni; test: Antimicrobial activity against Campylobacter jejuni DC16 harboring protein L4 G74D mutant by agar dilution method; format: functional
[12] = test system: Campylobacter jejuni; test: Antimicrobial activity against Campylobacter jejuni DC22 harboring protein L4 G74D mutant by agar dilution method; format: functional
[13] = test system: Campylobacter jejuni; test: Antimicrobial activity against Campylobacter jejuni DC24 harboring protein L4 G74D mutant by agar dilution method; format: functional
[14] = test system: Campylobacter jejuni; test: Antimicrobial activity against Campylobacter jejuni DC36 harboring protein L4 G74D mutant by agar dilution method; format: functional
[15] = test system: Campylobacter jejuni; test: Antimicrobial activity against Campylobacter jejuni JL292 selected at 4 to 16 times MIC after 3 to 4 days by agar dilution method; format: functional
[16] = test system: Campylobacter jejuni; test: Antimicrobial activity against Campylobacter jejuni DC26 harboring protein L4 G74D mutant by agar dilution method; format: functional
[17] = test system: Campylobacter jejuni; test: Antimicrobial activity against Campylobacter jejuni DC2 infected in 15 days old chicken by agar dilution method; format: functional
[18] = test system: Campylobacter jejuni; test: Antimicrobial activity against Campylobacter jejuni NCTC 11168 by agar dilution method; format: functional
[19] = test system: Campylobacter jejuni; test: Antimicrobial activity against Campylobacter jejuni DC5 harboring protein L4 G74D mutant by agar dilution method; format: functional
[20] = test system: Campylobacter jejuni; test: Antimicrobial activity against Campylobacter jejuni JL302 harboring protein L22 with insertion of amino acid TSH at position 98 selected at 4 to 16 times MIC after 3 to 4 days by agar dilution method; format: functional
[21] = test system: Campylobacter jejuni; test: Antimicrobial activity against Campylobacter jejuni JL301 harboring protein L22 with insertion of amino acid TSH at position 98 selected at 4 to 16 times MIC after 3 to 4 days by agar dilution method; format: functional
[22] = test system: Campylobacter jejuni; test: Antimicrobial activity against Campylobacter jejuni JL300 harboring protein L22 with insertion of amino acid TSH at position 98 selected at 4 to 16 times MIC after 3 to 4 days by agar dilution method; format: functional
[23] = test system: Campylobacter jejuni; test: Antimicrobial activity against Campylobacter jejuni JL297 selected at 4 to 16 times MIC after 3 to 4 days by agar dilution method; format: functional
[24] = test system: Campylobacter jejuni; test: Antimicrobial activity against Campylobacter jejuni JL287 harboring 23S rRNA A2074C mutant selected at 4 to 16 times MIC after 3 to 4 days by agar dilution method; format: functional
[25] = test system: Campylobacter jejuni; test: Antimicrobial activity against Campylobacter jejuni JL286 selected at 4 to 16 times MIC after 3 to 4 days by agar dilution method; format: functional
[26] = test system: Campylobacter jejuni; test: Antimicrobial activity against Campylobacter jejuni JL299 harboring protein L22 with insertion of amino acid TSH at position 98 selected at 4 to 16 times MIC after 3 to 4 days by agar dilution method; format: functional
[27] = test system: Campylobacter jejuni; test: Antimicrobial activity against Campylobacter jejuni DC25 harboring protein L4 G74D mutant by agar dilution method; format: functional
[28] = test system: Campylobacter jejuni; test: Antimicrobial activity against Campylobacter jejuni DC15 harboring protein L4 G74D mutant by agar dilution method; format: functional
[29] = test system: Campylobacter jejuni; test: Antimicrobial activity against Campylobacter jejuni DC6 infected in 3 days old chicken by agar dilution method; format: functional
[30] = test system: Campylobacter jejuni; test: Antimicrobial activity against Campylobacter jejuni DC38 harboring protein L4 G74D mutant by agar dilution method; format: functional
[31] = test system: Campylobacter jejuni; test: Antimicrobial activity against Campylobacter jejuni JL298 selected at 4 to 16 times MIC after 3 to 4 days by agar dilution method; format: functional
[32] = test system: Campylobacter jejuni; test: Antimicrobial activity against Campylobacter jejuni DC32 harboring 23S rRNA A2074G mutant by agar dilution method; format: functional
[33] = test system: Campylobacter jejuni; test: Antimicrobial activity against compound-resistant Campylobacter jejuni; format: functional
[34] = test system: Campylobacter jejuni; test: Antimicrobial activity against Campylobacter jejuni JL283 selected at 4 to 16 times MIC after 3 to 4 days by agar dilution method; format: functional
[35] = test system: Campylobacter jejuni; test: Antimicrobial activity against Campylobacter jejuni JL307 harboring protein L22 with insertion of amino acid TSH at position 98 selected at 4 to 16 times MIC after 3 to 4 days by agar dilution method; format: functional
[36] = test system: Campylobacter jejuni; test: Antimicrobial activity against Campylobacter jejuni JL285 selected at 4 to 16 times MIC after 3 to 4 days by agar dilution method; format: functional
[37] = test system: Campylobacter jejuni; test: Antimicrobial activity against Campylobacter jejuni JL284 selected at 4 to 16 times MIC after 3 to 4 days by agar dilution method; format: functional
[38] = test system: Campylobacter jejuni; test: Antimicrobial activity against Campylobacter jejuni JL278 selected at 4 to 16 times MIC after 3 to 4 days by agar dilution method; format: functional

CC[C@H]1OC(=O)[C@H](C)[C@@H](O[C@H]2C[C@@](C)(OC)[C@@H](O)[C@H](C)O2)[C@H](C)[C@@H](O[C@@H]2O[C@H](C)C[C@H](N(C)C)[C@H]2O)[C@](C)(O)C[C@@H](C)C(=O)[C@H](C)[C@@H](O)[C@]1(C)O [ERYTHROMYCIN]
MIC [1]: 256 µg/mL (≈ 349 µM) | MIC [2]: 8 µg/mL (≈ 10.9 µM) | MIC [3]: 64 µg/mL (≈ 87.2 µM) | MIC [4]: 64 µg/mL (≈ 87.2 µM) | MIC [5]: 64 µg/mL (≈ 87.2 µM) | MIC [6]: > 512 µg/mL | MIC [7]: 64 µg/mL | MIC [8]: 16 µg/mL (≈ 21.8 µM) | MIC [9]: > 512 µg/mL | MIC [10]: 16 µg/mL (≈ 21.8 µM) | MIC [11]: 32 µg/mL (≈ 43.6 µM) | MIC [12]: 32 µg/mL (≈ 43.6 µM) | MIC [13]: 32 µg/mL (≈ 43.6 µM) | MIC [14]: 128 µg/mL (≈ 174 µM) | MIC [15]: 8 µg/mL (≈ 10.9 µM) | MIC [16]: 64 µg/mL (≈ 87.2 µM) | MIC [17]: 32 µg/mL (≈ 43.6 µM) | MIC [18]: 1 µg/mL (≈ 1.36 µM) | MIC [19]: 8 µg/mL (≈ 10.9 µM) | MIC [20]: 512 µg/mL (≈ 698 µM) | MIC [21]: 512 µg/mL (≈ 698 µM) | MIC [22]: 128 µg/mL (≈ 174 µM) | MIC [23]: 8 µg/mL (≈ 10.9 µM) | MIC [24]: > 512 µg/mL | MIC [25]: 128 µg/mL (≈ 174 µM) | MIC [26]: 64 µg/mL (≈ 87.2 µM) | MIC [27]: 64 µg/mL (≈ 87.2 µM) | MIC [28]: 32 µg/mL (≈ 43.6 µM) | MIC [29]: > 512 µg/mL | MIC [30]: 128 µg/mL (≈ 174 µM) | MIC [31]: 8 µg/mL (≈ 10.9 µM) | MIC [32]: > 512 µg/mL | MIC [33]: 8 µg/mL (≈ 10.9 µM) | MIC [34]: 64 µg/mL (≈ 87.2 µM) | MIC [35]: 256 µg/mL (≈ 349 µM) | MIC [36]: 128 µg/mL (≈ 174 µM) | MIC [37]: 128 µg/mL (≈ 174 µM) | MIC [38]: 8 µg/mL (≈ 10.9 µM)
